Experimental data reported in US8034940B2, “Modulators of glucocorticoid receptor, AP-1, and/or NF-κB activity and use thereof” (Bristol-Myers Squibb Company, priority 2006, dated 2011).

System: AP-1 induced transcriptional activity
Test: Cellular Transrepressional Assay (AP-1 luciferase reporter, PMA-activated A549 cells)
Assay type: cell-based
Settings: for AP-1 Max % inh (Cellular Transrepression Assay) / Emax: maximum inhibition; for Emax: A549, 7 h, read-out: AP-1 Max % inh (Cellular Transrepression Assay)
Summary of the method: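 A549 cells stably carrying a 7× AP-1–luciferase reporter were stimulated with 10 ng/ml PMA with or without compound (0.1 nM–40 μM) for 7 h. Luminescence read 10 min after luciferase reagent; EC50 fitted from % decrease versus PMA-only signal.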

[1] = Homo sapiens, Cellular Transrepression Assay
[2] = Homo sapiens, A549, Cellular Transrepression Assay

Compound	EC50 (Cellular Transrepression Assay)	EC50 [2]	AP-1 Max % inh (Cellular Transrepression Assay) (Cellular Transrepression Assay)	Emax [1]
CC(C)(C(=O)Nc1nncs1)C1c2ccccc2Oc2nc(-c3ccc(N)cc3)ccc21 (stereo not drawn) [Example 200]	134 nM	–	53.76%	–
CC(=O)c1ccc(-c2ccc3c(n2)Oc2ccccc2C3C(C)(C)C(=O)Nc2nncs2)cc1 (stereo not drawn) [Example 201]	36.3 nM	–	65.46%	–
CC(C)(C(=O)Nc1nncs1)C1c2ccccc2Oc2nc(-c3ccc(OCc4ccccc4)cc3)ccc21 (stereo not drawn) [Example 202]	219 nM	–	38.37%	–
CCOc1ccc(-c2ccc3c(n2)Oc2ccccc2C3C(C)(C)C(=O)Nc2nncs2)cc1 (stereo not drawn) [Example 204]	42.8 nM	–	44.75%	–
CCCc1ccc(-c2ccc3c(n2)Oc2ccccc2C3C(C)(C)C(=O)Nc2nncs2)cc1 (stereo not drawn) [Example 205]	8.5 nM	–	57.72%	–
CCc1ccc(-c2ccc3c(n2)Oc2ccccc2C3C(C)(C)C(=O)Nc2nncs2)cc1 (stereo not drawn) [Example 206]	21.3 nM	–	54.73%	–
CC(C)(C)c1ccc(-c2ccc3c(n2)Oc2ccccc2C3C(C)(C)C(=O)Nc2nncs2)cc1 (stereo not drawn) [Example 207]	32.6 nM	–	37.96%	–
CC(C)Cc1ccc(-c2ccc3c(n2)Oc2ccccc2C3C(C)(C)C(=O)Nc2nncs2)cc1 (stereo not drawn) [Example 208]	12.2 nM	–	54.08%	–
CC(C)Oc1ccc(-c2ccc3c(n2)Oc2ccccc2C3C(C)(C)C(=O)Nc2nncs2)cc1 (stereo not drawn) [Example 209]	14.3 nM	–	50.21%	–
CCCCOc1ccc(-c2ccc3c(n2)Oc2ccccc2C3C(C)(C)C(=O)Nc2nncs2)cc1 (stereo not drawn) [Example 210]	77.7 nM	–	39.38%	–
CC(C)Oc1ccc(-c2ccc3c(n2)Oc2ccccc2C3C(C)(C)C(=O)Nc2nncs2)cc1F (stereo not drawn) [Example 211]	41.3 nM	–	49.63%	–
CCCCc1ccc(-c2ccc3c(n2)Oc2ccccc2C3C(C)(C)C(=O)Nc2nncs2)cc1 (stereo not drawn) [Example 212]	19.6 nM	–	63.05%	–
CCCOc1ccc(-c2ccc3c(n2)Oc2ccccc2C3C(C)(C)C(=O)Nc2nncs2)cc1 (stereo not drawn) [Example 217]	41 nM	–	45.81%	–
CC(C)(C(=O)Nc1nncs1)[C@H]1c2ccccc2Oc2nc(-c3ccncc3)ccc21 [Example 219]	180 nM	–	35.87%	–
CCCCCc1ccc(-c2ccc3c(n2)Oc2ccccc2C3C(C)(C)C(=O)Nc2nncs2)cc1 (stereo not drawn) [Example 220]	105 nM	–	52.23%	–
CC(C)(C(=O)Nc1nncs1)[C@H]1c2ccccc2Oc2nc(-c3ccc(C4CCCCC4)cc3)ccc21 [Example 221]	28.9 nM	–	62.97%	–

Compound	EC50 (Cellular Transrepression Assay)	EC50 [2]	AP-1 Max % inh (Cellular Transrepression Assay) (Cellular Transrepression Assay)	Emax [1]
CCCCc1ccc(-c2ccc3c(n2)Oc2ccccc2C3C(C)(C)C(=O)Nc2nncs2)c(C)c1 (stereo not drawn) [Example 222]	100 nM	–	61.88%	–
CC(C)(C(=O)Nc1nncs1)[C@H]1c2ccccc2Oc2nc(-c3ccc(O)c(F)c3)ccc21 [Example 223]	839 nM	–	27.87%	–
CC(C)(C(=O)Nc1nncs1)[C@H]1c2ccccc2Oc2nc(-c3cccc(F)c3)ccc21 [Example 225]	920 nM	–	45.65%	–
CCSc1ccc(-c2ccc3c(n2)Oc2ccccc2C3C(C)(C)C(=O)Nc2nncs2)cc1 (stereo not drawn) [Example 226]	18.1 nM	–	49.05%	–
CCS(=O)(=O)c1ccc(-c2ccc3c(n2)Oc2ccccc2C3C(C)(C)C(=O)Nc2nncs2)cc1 (stereo not drawn) [Example 227]	37.9 nM	–	42.50%	–
CC(C)S(=O)(=O)c1ccc(-c2ccc3c(n2)Oc2ccccc2C3C(C)(C)C(=O)Nc2nncs2)cc1 (stereo not drawn) [Example 228]	51.5 nM	–	28.32%	–
CC(=O)c1ccc(-c2ccc3c(n2)Oc2ccccc2C3C(C)(C)C(=O)Nc2nncs2)cc1F (stereo not drawn) [Example 229]	42 nM	–	39.34%	–
CCCOc1ccc(-c2ccc3c(n2)Oc2ccccc2C3C(C)(C)C(=O)Nc2nncs2)cc1F (stereo not drawn) [Example 230]	550 nM	–	52.33%	–
CC(C)(C(=O)Nc1nncs1)C1c2ccccc2Oc2nc(-c3ccc(CC(=O)O)cc3)ccc21 (stereo not drawn) [Example 231]	733 nM	–	38.36%	–
CCNS(=O)(=O)c1ccc(-c2ccc3c(n2)Oc2ccccc2C3C(C)(C)C(=O)Nc2nncs2)cc1 (stereo not drawn) [Example 234]	405 nM	–	27.08%	–
COC(=O)Cc1ccc(-c2ccc3c(n2)Oc2ccccc2[C@@H]3C(C)(C)C(=O)Nc2nncs2)cc1 [Example 238]	–	601 nM	–	62.3%
CC(C)C(O)c1ccc(-c2ccc3c(n2)Oc2ccccc2[C@@H]3C(C)(C)C(=O)Nc2nncs2)cc1 (stereo partly drawn) [Example 240]	–	51.9 nM	–	61.7%
C[S+]([O-])c1ccc(-c2ccc3c(n2)Oc2ccccc2[C@@H]3C(C)(C)C(=O)Nc2nncs2)cc1 (stereo partly drawn) [Example 241]	–	25.3 nM	–	46.8%
CC(C)Oc1ccc(-c2ccc3c(n2)Oc2ccccc2[C@@H]3C(C)(C)C(=O)Nc2nccs2)cc1F [Example 246]	–	325 nM	–	81.8%
CC(C)(C(=O)Nc1nncs1)[C@H]1c2ccccc2Oc2nc(-c3ccc(C(=O)N4CCCCC4)cc3)ccc21 [Example 247]	–	4.74 nM	–	52.4%
CC(C)(C(=O)Nc1nncs1)[C@H]1c2ccccc2Oc2nc(-c3ccc(C(=O)N4CCCCC4)c(F)c3)ccc21 [Example 249]	11.2 nM	–	42.38%	–

Second part, led by results:

EC50 (Cellular Transrepression Assay)	EC50 [2]	Compound	AP-1 Max % inh (Cellular Transrepression Assay) (Cellular Transrepression Assay)	Emax [1]
–	17.8 nM	CN(C)C(=O)c1ccc(-c2ccc3c(n2)Oc2ccccc2[C@@H]3C(C)(C)C(=O)Nc2nncs2)cc1F [Example 250]	–	48.4%
17.4 nM	–	CCN(C)C(=O)c1ccc(-c2ccc3c(n2)Oc2ccccc2C3C(C)(C)C(=O)Nc2nncs2)cc1 (stereo not drawn) [Example 251]	54.92%	–
34.6 nM	–	CC(C)(C(=O)Nc1nncs1)[C@H]1c2ccccc2Oc2nc(-c3ccc(C(=O)N4CCCC4)cc3)ccc21 [Example 252]	60.94%	–
23.6 nM	–	CCCN(C)C(=O)c1ccc(-c2ccc3c(n2)Oc2ccccc2C3C(C)(C)C(=O)Nc2nncs2)cc1 (stereo not drawn) [Example 254]	41.80%	–
12.4 nM	–	CC(C)(C(=O)Nc1nncs1)[C@H]1c2ccccc2Oc2nc(-c3ccc(C(=O)N4CCOCC4)cc3)ccc21 [Example 257]	63.96%	–
534 nM	–	CC(C)N(C)C(=O)c1ccc(-c2ccc3c(n2)Oc2ccccc2C3C(C)(C)C(=O)Nc2nncs2)cc1 (stereo not drawn) [Example 258]	40.99%	–
–	72.2 nM	CCN(CC)C(=O)c1ccc(-c2ccc3c(n2)Oc2ccccc2[C@@H]3C(C)(C)C(=O)Nc2nncs2)cc1F [Example 259]	–	23.3%
–	23.1 nM	CN(C)C(=O)c1ccc(-c2ccc3c(n2)Oc2ccccc2[C@@H]3C(C)(C)C(=O)Nc2nncs2)cc1Cl [Example 260]	–	67.3%
–	15.4 nM	CCN(CC)C(=O)c1ccc(-c2ccc3c(n2)Oc2ccccc2[C@@H]3C(C)(C)C(=O)Nc2nncs2)cc1Cl [Example 263]	–	58%
115 nM	–	CC(C)(C(=O)Nc1nncs1)[C@H]1c2ccccc2Oc2nc(-c3ccc(C(=O)N4CCCCC4)c(Cl)c3)ccc21 [Example 264]	33.74%	–
569 nM	–	CN(CCC#N)C(=O)c1ccc(-c2ccc3c(n2)Oc2ccccc2[C@@H]3C(C)(C)C(=O)Nc2nncs2)cc1 [Example 267]	40.78%	–
–	234 nM	CC(=O)N1CCN(C(=O)c2ccc(-c3ccc4c(n3)Oc3ccccc3[C@@H]4C(C)(C)C(=O)Nc3nncs3)cc2)CC1 [Example 274]	–	62.2%
–	14.8 nM	CC(C)(C(=O)Nc1nncs1)[C@H]1c2ccccc2Oc2nc(-c3ccc(C(=O)N4CCC(F)(F)CC4)cc3)ccc21 [Example 300]	–	61.8%
41.5 nM	–	COC1CCN(C(=O)c2ccc(-c3ccc4c(n3)Oc3ccccc3[C@@H]4C(C)(C)C(=O)Nc3nncs3)cc2)CC1 [Example 309]	34.95%	–
–	786 nM	CC(C)(C(=O)Nc1nncs1)[C@H]1c2ccccc2Oc2nc(-c3ccc(C(=O)N4CCS(=O)(=O)CC4)cc3)ccc21 [Example 310]	–	52.9%
–	267 nM	CC(C)(C(=O)Nc1nncs1)[C@H]1c2ccccc2Oc2nc(-c3ccc(C(=O)N4CCC[C@@H]4C(N)=O)cc3)ccc21 [Example 312]	–	73.1%
–	18 nM	CC(C)(C(=O)Nc1nncs1)[C@H]1c2ccccc2Oc2nc(-c3ccc(C(=O)N4CCC(F)(F)C4)cc3)ccc21 [Example 314]	–	69.8%
–	750 nM	CC(C)(C(=O)Nc1nncs1)[C@H]1c2ccccc2Oc2nc(-c3ccc(C(=O)N4CC(O)C4)cc3)ccc21 [Example 315]	–	40.9%
–	60.9 nM	CC(C)(C(=O)Nc1nncs1)[C@H]1c2ccccc2Oc2nc(-c3ccc(C(=O)N4CCCC4C#N)cc3)ccc21 (stereo partly drawn) [Example 316]	–	35.9%
–	63.1 nM	CC(C)C1CCCN1C(=O)c1ccc(-c2ccc3c(n2)Oc2ccccc2[C@@H]3C(C)(C)C(=O)Nc2nncs2)cc1 (stereo partly drawn) [Example 318]	–	27.6%
–	431 nM	CC(=O)N1CCN(C(=O)c2ccc(-c3ccc4c(n3)Oc3ccccc3[C@@H]4C(C)(C)C(=O)Nc3nncs3)cc2F)CC1 [Example 324]	–	54.9%
–	90.2 nM	COC[C@H]1CCCN1C(=O)c1ccc(-c2ccc3c(n2)Oc2ccccc2[C@@H]3C(C)(C)C(=O)Nc2nncs2)cc1F [Example 325]	–	56.1%
